{"source": "ChEMBL document CHEMBL3784999", "about": "“Investigation of 4-amino-5-alkynylpyrimidine-2(1H)-ones as anti-mycobacterial agents” (Bioorg Med Chem, 2016)", "key": {"[1]": {"system": "Mycobacterium avium", "test": "Antimycobacterial activity against Mycobacterium avium ATCC 25291 assessed as inhibition of mycobacterial replication after 6 days by microplate Alamar blue assay", "format": "functional, Mycobacterium avium subsp. avium ATCC 25291", "details": "ATCC 25291, 144 h"}, "[2]": {"system": "Mycobacterium tuberculosis", "test": "Antimycobacterial activity against Mycobacterium tuberculosis H37Ra assessed as inhibition of mycobacterial replication after 6 days by microplate Alamar blue assay", "format": "functional", "details": "144 h"}, "[3]": {"system": "Mycobacterium tuberculosis", "test": "Antimycobacterial activity against Mycobacterium tuberculosis H37Ra assessed as inhibition of mycobacterial replication at 0.05 ug/ml after 6 days by microplate Alamar blue assay in absence of isoniazid", "format": "functional", "details": "144 h"}, "[4]": {"system": "Mycobacterium tuberculosis", "test": "Antimycobacterial activity against Mycobacterium tuberculosis H37Ra infected in BALB/c mouse assessed as reduction of bacterial load in spleen at 1 mg/kg, po administered for 2 weeks started on day 4 post bacterial infection measured 3 days post last dose", "format": "functional, organism-based"}, "[5]": {"system": "Mycobacterium tuberculosis", "test": "Antimycobacterial activity against Mycobacterium tuberculosis H37Ra infected in BALB/c mouse assessed as reduction of bacterial load in lung at 1 mg/kg, po administered for 2 weeks started on day 4 post bacterial infection measured 3 days post last dose", "format": "functional, organism-based"}, "[6]": {"system": "Mycobacterium tuberculosis", "test": "Antimycobacterial activity against Mycobacterium tuberculosis H37Ra infected in BALB/c mouse assessed as reduction of bacterial load in liver at 1 mg/kg, po administered for 2 weeks started on day 4 post bacterial infection measured 3 days post last dose", "format": "functional, organism-based"}, "[7]": {"system": "Mycobacterium tuberculosis", "test": "Antimycobacterial activity against Mycobacterium tuberculosis H37Ra assessed as inhibition of mycobacterial replication at 50 ug/ml after 6 days by microplate Alamar blue assay", "format": "functional", "details": "144 h"}, "[8]": {"system": "Mycobacterium tuberculosis", "test": "Antimycobacterial activity against Mycobacterium tuberculosis H37Ra assessed as inhibition of mycobacterial replication at 200 ug/ml after 6 days by microplate Alamar blue assay", "format": "functional", "details": "144 h"}, "[9]": {"test": "Cytotoxicity against African green monkey Vero cells assessed as cell viability after 3 days by XTT assay", "format": "cell-based", "details": "chlorocebus sabaeus"}}, "note": "Active and inactive are the calls of the source. No cut-off for these calls is given here."}
{"smiles": "CO[C@H]1/C=C/O[C@@]2(C)Oc3c(C)c(O)c4c(O)c(c(/C=N/N5CCN(C)CC5)c(O)c4c3C2=O)NC(=O)/C(C)=C\\C=C\\[C@H](C)[C@H](O)[C@@H](C)[C@@H](O)[C@@H](C)[C@H](OC(C)=O)[C@@H]1C", "note": "[RIFAMPIN]", "values": [{"measurement": "MIC90", "setting": "[1]", "value": 2, "unit": "µg/mL"}, {"measurement": "MIC90", "setting": "[2]", "value": 0.5, "unit": "µg/mL"}]}
{"smiles": "NNC(=O)c1ccncc1", "note": "[ISONIAZID]", "values": [{"measurement": "inhibition at 0.05 µg/mL", "setting": "[3]", "value": 10, "unit": "%"}, {"measurement": "Activity", "setting": "[4]", "value": "inactive"}, {"measurement": "Activity", "setting": "[5]", "value": "inactive"}, {"measurement": "Activity", "setting": "[6]", "value": "inactive"}]}
{"smiles": "CCCCCCCCC#Cc1c[nH]c(=O)nc1N", "values": [{"measurement": "inhibition at 50 µg/mL", "setting": "[7]", "value": 50, "unit": "%"}, {"measurement": "inhibition at 200 µg/mL", "setting": "[8]", "value": 100, "unit": "%"}, {"measurement": "MIC50", "setting": "[2]", "value": 50, "unit": "µg/mL"}, {"measurement": "CC50 at 72 h", "setting": "[9]", "value": "> 200", "unit": "µg/mL"}]}
{"smiles": "CCCCCCCCCCCC#Cc1c[nH]c(=O)nc1N", "values": [{"measurement": "CC50 at 72 h", "setting": "[9]", "value": "> 200", "unit": "µg/mL"}]}
